Assay [1] addresses T1, HPK1 kinase (aa1-346, Life Technologies) (Homo sapiens, UniProt Q92918).
T1 construct: HPK1 kinase (aa1-346, Life Technologies); purchased Life Technologies
T1 sequence (Q92918 1-346): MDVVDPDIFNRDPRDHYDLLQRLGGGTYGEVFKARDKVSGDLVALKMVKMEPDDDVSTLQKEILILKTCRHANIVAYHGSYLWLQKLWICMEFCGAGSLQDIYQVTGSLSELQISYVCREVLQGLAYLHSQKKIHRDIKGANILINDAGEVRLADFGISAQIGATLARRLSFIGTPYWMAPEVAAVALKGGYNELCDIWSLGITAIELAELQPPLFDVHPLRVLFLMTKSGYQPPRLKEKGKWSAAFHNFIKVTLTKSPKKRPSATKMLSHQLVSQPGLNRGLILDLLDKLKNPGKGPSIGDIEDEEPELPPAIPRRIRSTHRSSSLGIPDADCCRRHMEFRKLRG
Nature of the assay: HPK1 Kinase Activity Assay at 1 mM ATP (TR-FRET). It counts as biochemical. Particulars: HPK1 40 nM, read-out: Enzymatic activity IC50. As to the method: HPK1 Kinase Activity Assay at 1 mM ATP
Compounds disclosed herein were tested for inhibition of HPK1 kinase (aa1-346, Life Technologies) activity in assays based on the time-resolved fluorescence-resonance energy transfer (TR-FRET) methodology. The assays were carried out in 384-well low volume black plates in a reaction mixture containing HPK1 kinase (40 nM), 1 mM ATP, 0.5 μM STK1 substrate and 0-10 μM compound in buffer containing 50 mM HEPES, 0.01% BSA, 0.1 mM Orthovanadate, 10 mM MgCl2, 1 mM DTT, pH=7.0, 0.005% Tween-20. The kinase was incubated with the compounds disclosed herein or DMSO for 60 minutes at room temperature and the reaction was initiated by the addition of ATP and STK1 substrate. After reaction at room temperature for 120 minutes, an equal volume of stop/detection solution was added according to the manufacturer's instruction (CisBio). The stop/detection solution contained STK Antibody-Cryptate and XL665-conjugated streptavidin in Detection Buffer. The TR-FRET signals (ratio of fluorescence emission at 665 nm over emission at 620 nm with excitation at 337 nm wavelength) were recorded on a PHERAstar FS plate reader (BMG Labtech). Phosphorylation of STK1 substrate led to the binding of STK Antibody-Cryptate to the biotinylated STK1 substrate, which places fluorescent donor (Eu^3+ cryptate) in close proximity to the accepter (Streptavidin-XL665), thus resulting in a high degree of fluorescence resonance energy transfer. The inhibition of HPK1 in presence of increasing concentrations of compounds was calculated based on the ratio of fluorescence at 665 nm to that at 620 nm. The IC50 for each compound was derived from fitting the data to the four-parameter logistic equation by Graphpad Prism software.
On the technique in general: TR-FRET usually uses a lanthanide donor and a delayed reading to cut background.

In a further assay the test system is HEK293 cells. Kind of assay: HEK293 cell viability assay (CellTiter-Glo). It counts as cell-based. Particulars: 3-day exposure, 0 to 10 μM. The method, then: Cytotoxicity on HEK293 Cells Proliferation (HEK293 Cell Viability Assay)
HEK293 cell line were used in this study. Cell lines were maintained in DMEM (Dulbecco's Modified Eagle Medium) supplemented with 10% fetal bovine serum (Thermo Fisher), 50 units/mL penicillin and streptomycin (Thermo Fisher) and kept at 37° C. in a humidified atmosphere containing 5% CO2 in air. Cell lines were reinstated from frozen stocks that were laid down within 50 passages from the original cells purchased. The growth-inhibitory activity of compounds in HEK293 cells was determined using CellTiter-Glo luminescent cell viability assay (Promega). 3000 cells per well were seeded into a 96-well plate to ensure logarithmic growth for 3 days treatment period. Cells were treated with a 10-point dilution series. The final compound concentration was from 0 to 10 μM. Following a 3-day exposure to the test compounds, 30 μL of CellTiter-Glo reagent was added into 100 μL cell culture medium per well. Mixture was mixed on an orbital shaker for 2 minutes to allow cell lysis, followed by 10 minutes of incubation at room temperature to allow development and stabilization of luminescent signal, which corresponded to the quantity of ATP and thus the quantity of metabolically active cells. Luminescent signal was measured using PHERAstar FS reader (BMG Labtech). IC50 values for cell viability were determined with Dotmatics.
A general note: In ATP-based viability assays light output follows the ATP content of the culture.

pIC50: −log10 of the molar value.

Usually pIC50 stands for the IC50 on a negative log10 scale, so that one unit is a factor of ten.

Turning to `COc1cc(-c2cnc3[nH]cc(-c4ccc(C(=O)N5CC6(COC6)C5)cc4)c3n2)cc2c1CN(C)CC2` [Example 15, (4-(2-(8-methoxy-2-methyl-1,2,3,4-tetrahydroisoquinolin-6-yl)-5H-pyrrolo[2,3-b]pyrazin-7-yl)phenyl) (2-oxa-6-azaspiro[3.3]heptan-6-yl)methanone], the pIC50 in assay [1] is 7.77; in the assay with HEK293 cells (Homo sapiens, HEK293, 72 h) it was 5.98.

Regarding `Cc1cc(-c2c[nH]c3ncc(-c4cc(C)c5c(c4)CCN(C)C5)nc23)ccc1C(=O)N(C)C` [Example 126, 4-(2-(2,8-dimethyl-1,2,3,4-tetrahydroisoquinolin-6-yl)-5H-pyrrolo[2,3-b]pyrazin-7-yl)-N, N, 2-trimethylbenzamide], the negative logarithm of the IC50 (pIC50) is 7.37 in assay [1] and below 5.00 in the assay with HEK293 cells (Homo sapiens, HEK293, 72 h).

Take `CCN1CCc2c(C)cc(-c3cnc4[nH]cc(-c5ccc(C(=O)N(C)C)c(C)c5)c4n3)cc2C1` [Example 127, 4-(2-(2-ethyl-5-methyl-1,2,3,4-tetrahydroisoquinolin-7-yl)-5H-pyrrolo[2,3-b]pyrazin-7-yl)-N, N, 2-trimethylbenzamide]: the pIC50 in assay [1] is 7.07; in the assay on HEK293 cells (Homo sapiens, HEK293, 72 h) it was 5.50.

On to `Cc1cc(-c2cnc3[nH]cc(-c4ccc(C(=O)N(C)CC(C)(C)O)cc4)c3n2)cc2c1CCN(C)C2` [Example 38, 4-(2-(2,5-dimethyl-1,2,3,4-tetrahydroisoquinolin-7-yl)-5H-pyrrolo[2,3-b]pyrazin-7-yl)-N-(2-hydroxy-2-methylpropyl)-N-methylbenzamide], for which the negative-log IC50 (pIC50) was 7.19 in assay [1] and 5.66 in the assay on HEK293 cells.

Take `Cc1cc(-c2c[nH]c3ncc(-c4cc(C)c5c(c4)CN(C)CC5)nc23)ccc1C(=O)N(C)C` [Example 2, 4-(2-(2,5-dimethyl-1,2,3,4-tetrahydroisoquinolin-7-yl)-5H-pyrrolo[2,3-b]pyrazin-7-yl)-N, N, 2-trimethylbenzamide]: the pIC50 in assay [1] was 7.59; in the assay on HEK293 cells (Homo sapiens, HEK293, 72 h) it was 5.48.

Turning to `Cc1cc(-c2cnc3[nH]cc(-c4ccc(C(=O)N(C)C)cc4)c3n2)cc2c1CCN(C)C2` [Example 1, 4-[2-(2,5-dimethyl-3,4-dihydro-1H-isoquinolin-7-yl)-5H-pyrrolo[2,3-b]pyrazin-7-yl]-N, N-dimethylbenzamide], the pIC50 is 7.62 in assay [1] and 5.44 with HEK293 cells (Homo sapiens, HEK293, 72 h).

As for `COc1cc(-c2cnc3[nH]cc(-c4ccc(C(=O)N(C)C[C@H](C)O)c(C)c4)c3n2)cc2c1CN(C)CC2` [Example 6, (S)—N-(2-hydroxypropyl)-4-(2-(8-methoxy-2-methyl-1,2,3,4-tetrahydroisoquinolin-6-yl)-5H-pyrrolo[2,3-b]pyrazin-7-yl)-N, 2-dimethylbenzamide], the pIC50 in assay [1] is 7.49; in the assay on HEK293 cells (Homo sapiens, HEK293, 72 h) it was 5.26.

As to `CN1CCc2c(cc(-c3cnc4[nH]cc(-c5ccc(C(=O)N(C)C)cc5)c4n3)cc2C(F)F)C1` [Example 95, 4-(2-(5-(difluoromethyl)-2-methyl-1,2,3,4-tetrahydroisoquinolin-7-yl)-5H-pyrrolo[2,3-b]pyrazin-7-yl)-N, N-dimethylbenzamide], the pIC50 in assay [1] was 7.15; in the assay with HEK293 cells (Homo sapiens, HEK293, 72 h) it was 5.29.

`COc1cc(-c2cnc3[nH]cc(-c4ccc(C(=O)N(C)C[C@@H](C)O)cc4)c3n2)cc2c1CN(C)CC2` [Example 10, (R)—N-(2-hydroxypropyl)-4-(2-(8-methoxy-2-methyl-1,2,3,4-tetrahydroisoquinolin-6-yl)-5H-pyrrolo[2,3-b]pyrazin-7-yl)-N-methylbenzamide]: the negative-log IC50 (pIC50) in assay [1] was 7.96; in the assay on HEK293 cells (Homo sapiens, HEK293, 72 h) it was 5.85.

On to `Cc1cc(-c2c[nH]c3ncc(-c4cc(C)c5c(c4)CN(CCC(=O)NC4CCOCC4)CC5)nc23)ccc1C(=O)N(C)C` [Example 28, N, N, 2-trimethyl-4-(2-(5-methyl-2-(3-oxo-3-(tetrahydro-2H-pyran-4-ylamino)propyl)-1,2,3,4-tetrahydroisoquinolin-7-yl)-5H-pyrrolo[2,3-b]pyrazin-7-yl)benzamide], for which, in assay [1], the pIC50 is 7.17.

For the compound `Cc1cc(-c2cnc3[nH]cc(-c4ccc(C(=O)N(C)C[C@@H](C)O)cc4)c3n2)cc2c1CCN(C)C2` [Example 8, (R)-4-(2-(2,5-dimethyl-1,2,3,4-tetrahydroisoquinolin-7-yl)-5H-pyrrolo[2,3-b]pyrazin-7-yl)-N-(2-hydroxypropyl)-N-methylbenzamide], the pIC50 in assay [1] is 7.44.

`COc1cc(-c2cnc3[nH]cc(-c4cc(F)c(C(=O)N(C)C[C@H]5CCOC5)c(F)c4)c3n2)cc2c1CN(C)CC2` [Example 7B, (R)-2,6-difluoro-4-(2-(8-methoxy-2-methyl-1,2,3,4-tetrahydroisoquinolin-6-yl)-5H-pyrrolo[2,3-b]pyrazin-7-yl)-N-methyl-N-((tetrahydrofuran-3-yl)methyl)benzamide]: in assay [1], the pIC50 was 7.51.

As for `Cc1cc(-c2c[nH]c3ncc(-c4cc(C)c5c(c4)CN(C)CC5)nc23)ccc1C(=O)N(C)CC(C)(C)O` [Example 39, 4-(2-(2,5-dimethyl-1,2,3,4-tetrahydroisoquinolin-7-yl)-5H-pyrrolo[2,3-b]pyrazin-7-yl)-N-(2-hydroxy-2-methylpropyl)-N, 2-dimethylbenzamide], in assay [1], the pIC50 is 6.73.

For the compound `Cc1cc(-c2c[nH]c3ncc(-c4cc(C)c5c(c4)CN(CCN4CCOCC4)CC5)nc23)ccc1C(=O)N(C)C[C@@H]1CCOC1` [Example 50, (S)—N, 2-dimethyl-4-(2-(5-methyl-2-(2-morpholinoethyl)-1,2,3,4-tetrahydroisoquinolin-7-yl)-5H-pyrrolo[2,3-b]pyrazin-7-yl)-N-((tetrahydrofuran-3-yl)methyl)benzamide], the pIC50 in assay [1] was 6.86.

For the compound `COc1ccc(NC(=O)CCN2CCc3c(C)cc(-c4cnc5[nH]cc(-c6ccc(C(=O)N(C)C)c(C)c6)c5n4)cc3C2)cc1` [Example 27, 4-(2-(2-(3-(4-methoxyphenylamino)-3-oxopropyl)-5-methyl-1,2,3,4-tetrahydroisoquinolin-7-yl)-5H-pyrrolo[2,3-b]pyrazin-7-yl)-N, N, 2-trimethylbenzamide], the pIC50 in assay [1] is 7.59.

In the case of `CC(=O)Nc1cc(-c2c[nH]c3ncc(-c4cc(C)c5c(c4)CN(C)CC5)nc23)ccc1C(=O)N(C)C` [Example 21, 2-acetamido-4-(2-(2,5-dimethyl-1,2,3,4-tetrahydroisoquinolin-7-yl)-5H-pyrrolo[2,3-b]pyrazin-7-yl)-N, N-dimethylbenzamide], in assay [1], the pIC50 is 7.12.

As to `Cc1cc(-c2c[nH]c3ncc(-c4cc(C)c5c(c4)CN(CCC(=O)NCC(C)(C)O)CC5)nc23)ccc1C(=O)N(C)C` [Example 33, 4-(2-(2-(3-(2-hydroxy-2-methylpropylamino)-3-oxopropyl)-5-methyl-1,2,3,4-tetrahydroisoquinolin-7-yl)-5H-pyrrolo[2,3-b]pyrazin-7-yl)-N, N, 2-trimethylbenzamide], the pIC50 in assay [1] is 7.31.

Regarding `COCCCN(C)C(=O)c1ccc(-c2c[nH]c3ncc(-c4cc(C)c5c(c4)CN(C)CC5)nc23)cc1` [Example 40, 4-(2-(2,5-dimethyl-1,2,3,4-tetrahydroisoquinolin-7-yl)-5H-pyrrolo[2,3-b]pyrazin-7-yl)-N-(3-methoxypropyl)-N-methylbenzamide], the pIC50 in assay [1] was 7.77.

Take `Cc1cc(-c2c[nH]c3ncc(-c4cc(C)c5c(c4)CN(CCC(=O)NC[C@@H](C)O)CC5)nc23)ccc1C(=O)N(C)C` [Example 29, (R)-4-(2-(2-(3-(2-hydroxypropylamino)-3-oxopropyl)-5-methyl-1,2,3,4-tetrahydroisoquinolin-7-yl)-5H-pyrrolo[2,3-b]pyrazin-7-yl)-N, N, 2-trimethylbenzamide]: in assay [1], the pIC50 is 7.34.
